Test results: patent publication US20120128711A1, “ANTI-INFLAMMATORY APPROACH TO PREVENTION AND SUPPRESSION OF POST-TRAUMATIC STRESS DISORDER, TRAUMATIC BRAIN INJURY, DEPRESSION AND ASSOCIATED DISEASE STATES” (TOTAL NUTRACEUTICAL SOLUTIONS, INC., priority 2009, published 2012)
Entries after “also recorded” stand apart in the source; their conditions may differ.

How the values were obtained:
[1] = system: Drosophila melanogaster under Paraquat-induced oxidative stress; test: Survival of Drosophila melanogaster under Paraquat-induced oxidative stress; type: in vivo; conditions: 10 mM Paraquat
Description: The effect of Agaricus Blazei without enrichment, with Vitamin D2 enrichment, pure Vitamin D2 and control (vehicle for the delivery) on the survival rate of Drosophila melanogaster under Paraquat-induced oxidative stress condition was tested. The study focused on the control of Paraquat induced oxidative stress/biologic death. Paraquat is a very potent oxidative stress inducing chemical and causes death in animals and plants by the toxicity of released free radicals. Paraquat (10 mM concentration) (Sigma Aldrich) was used to chemically induce oxidative stress. Paraquat is the trade name for N,N′-dimethyl-4,4′-bipyridinium dichloride, a widely used herbicide. Paraquat, a viologen, is quick-acting and non-selective, killing green plant tissue on contact. It is also toxic to humans when swallowed. This is the most standard chemical used in experimental induction of oxidative stress using the Drosophila model system. It catalyzes the formation of reactive oxygen species (ROS). Paraquat will undergo redox cycling in vivo, gets reduced by an electron donor such NADPH, before being oxidized by an electron receptor such as dioxygen to produce superoxide, a major ROS.
The following materials and methods were utilized. Vials containing 10 mM Paraquat (from Sigma Aldrich) in 5 ml of 1.2% Low melting point Agarose medium were prepared. A strip of half moist filter paper was inserted in the medium (with the wet end in). Yeast paste containing 1% concentration (w/w) of the various test materials (see above) mixed to homogeneity was prepared. Yeast paste without drug was used as control. Uniform aliquot (˜300 mg) of yeast paste with or without the test material) was applied to vials in such a way that yeast paste was on the glass surface and covered the dry end (top) of the filter paper strip. Freshly enclosed wild type isogenized Canton-S males and females were collected and starved on 1% agar medium for 5-6 hours. Four males and females were transferred to the vial containing 10 mM paraquat in LMP agarose medium and yeast paste with +/− test material (8 flies per vial). 6 vials were used per experiment. Vials with flies were placed horizontally in a tray. The experiment was conducted at 25 degrees C. temperature. Flies were transferred once in 2 days and the number of flies surviving at each transfer was recorded.

[2] = system: Alzheimer's disease (AD) model in Drosophila; test: Survival of Alzheimer's disease (AD) model flies (UAS-hAPP;408-GAL4); type: in vivo; conditions: mushroom or turmeric powder 1% w/w, Vitamin D2/D3 0.75% w/w in yeast paste, 25 degrees C
Excerpt: Type of Model (with specific Drosophila model of neurodegeneration, with references). The targeted over/ectopic expression of APP in the brain using a UAS promoter driven APP transgene, induced by a specific GAL4 trans-driver in the brain of a Drosophila model system, was used for this Example. Below is a reference for such over-expression of APP in the Drosophila model system and the combination gives a fully penetrant AD with limited life-span.
β-Amyloid peptides and amyloid precursor protein (APP) play a deterministic role in Alzheimer's disease (AD). […]
We determined the extension of life span in the mutant strain for each test compound. […]
A series of experiments were run according to the methods earlier reported on Paraquat induced oxidative stress and Drosophila Alzheimer's disease flies. […] We determined the extension of life span in the mutant strain for each test compound as detailed below. […]
In the meantime, yeast paste containing required concentration of compound was prepared. […] Required quantity of both yeast and compound was weighed and finely ground in a pestle and mortar. The finely ground powder was transferred to a small beaker and appropriate quantity of water was added and mixed very well to make a homogeneous paste. […]

C=C1CC[C@H](O)C/C1=C/C=C1\CCC[C@]2(C)[C@@H]([C@H](C)CCCC(C)C)CC[C@@H]12 [Vitamin D3, cholecalciferol]
effect on survival under Paraquat-induced oxidative stress (words) [1]: no beneficial effect; also recorded: no effect on survival

C=C1CC[C@H](O)C/C1=C/C=C1\CCC[C@]2(C)[C@@H]([C@H](C)/C=C/[C@H](C)C(C)C)CC[C@@H]12 [pure Vitamin D2, ergocalciferol]
effect on survival under Paraquat-induced oxidative stress (words) [1]: no effect on survival | survivability under Paraquat-induced oxidative stress condition ([1]; 1% w/w test material in yeast paste, period of 10 days, 25 degrees C): 13%+/−3% | effect on survival under Paraquat-induced oxidative stress (words) ([1]; listed as Vitamin D2): deleterious effect on the survival; also recorded: no beneficial effect | effect on survival of AD flies [2]: no such effect
